EP1065215A1 (Boehringer Ingelheim International GmbH, priority 1999, dated 2001)

What was measured:
Test in all cases: Displacement of [3H]AMPA binding on membranes of transfected HEK293 cells
Conditions in all cases: mean ± S.E.; for Hill slope: displacement of [3H]AMPA binding, Prism software
GluR1 (1-24) = target: T1, GluR1 (1-24) (Homo sapiens, UniProt P42261)
T1 construct: expressed in transfected cells; host or cells: HEK293, plasmid pHGluR1/pcDNA3
Description: (§1) In order to examine the pharmacological identity of the stably expressed recombinant receptors, competitive binding studies were performed.
(§2) The binding studies were carried out as outlined previously (Keinänen et al., 1990; Fletcher et al., 1995). […] The pellets were resuspended in 50 mM Tris-HCl (pH 7.5) and repeated the homogenization and centrifugation. […] The cell membranes were incubated with the radioligand for 60 minutes on ice, and subsequently collected by rapid filtration through GF/C filters. […] The filters were washed rapidly with cold assay buffer. The radioactivity retained in the filters was measured by liquid scintillation counting.

GluR3 (5-42) = target: T2, GluR3 (5-42) (Homo sapiens, UniProt P42263)
T2 construct: expressed in transfected cells; host or cells: HEK293, plasmid pHGluR3/pcDNA3
T2 sequence (P42263 29-894 isoform P42263-2 limits assumed): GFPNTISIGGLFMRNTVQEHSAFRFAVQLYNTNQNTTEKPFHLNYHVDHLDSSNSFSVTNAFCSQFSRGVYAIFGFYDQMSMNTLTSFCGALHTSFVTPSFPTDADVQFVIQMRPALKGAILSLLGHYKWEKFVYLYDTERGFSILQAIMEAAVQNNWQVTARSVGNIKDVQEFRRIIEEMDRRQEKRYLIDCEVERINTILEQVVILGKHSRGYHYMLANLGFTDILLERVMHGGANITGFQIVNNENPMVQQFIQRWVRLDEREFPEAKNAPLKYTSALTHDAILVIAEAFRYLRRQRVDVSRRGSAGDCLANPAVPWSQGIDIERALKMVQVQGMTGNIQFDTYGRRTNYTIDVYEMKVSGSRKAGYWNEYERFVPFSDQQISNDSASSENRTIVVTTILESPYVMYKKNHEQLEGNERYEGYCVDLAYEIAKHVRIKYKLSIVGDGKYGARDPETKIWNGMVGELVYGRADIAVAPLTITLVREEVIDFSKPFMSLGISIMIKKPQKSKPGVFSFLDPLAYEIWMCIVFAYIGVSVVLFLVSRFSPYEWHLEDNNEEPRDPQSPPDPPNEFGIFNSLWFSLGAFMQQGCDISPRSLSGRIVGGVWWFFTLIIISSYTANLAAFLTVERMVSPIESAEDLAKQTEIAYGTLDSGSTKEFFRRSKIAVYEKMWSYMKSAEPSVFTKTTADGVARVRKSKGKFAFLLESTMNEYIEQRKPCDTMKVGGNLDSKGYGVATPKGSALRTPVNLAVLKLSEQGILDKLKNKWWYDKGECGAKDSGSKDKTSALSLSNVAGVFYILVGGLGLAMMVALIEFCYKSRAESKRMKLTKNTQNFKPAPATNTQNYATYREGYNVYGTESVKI
Description: as §1, §2

GluR4 (4-19) = target: T3, GluR4 (4-19) (Homo sapiens, UniProt P48058)
T3 construct: expressed in transfected cells; host or cells: HEK293, plasmid pHGluR4/pcDNA3
T3 sequence (P48058 21-902): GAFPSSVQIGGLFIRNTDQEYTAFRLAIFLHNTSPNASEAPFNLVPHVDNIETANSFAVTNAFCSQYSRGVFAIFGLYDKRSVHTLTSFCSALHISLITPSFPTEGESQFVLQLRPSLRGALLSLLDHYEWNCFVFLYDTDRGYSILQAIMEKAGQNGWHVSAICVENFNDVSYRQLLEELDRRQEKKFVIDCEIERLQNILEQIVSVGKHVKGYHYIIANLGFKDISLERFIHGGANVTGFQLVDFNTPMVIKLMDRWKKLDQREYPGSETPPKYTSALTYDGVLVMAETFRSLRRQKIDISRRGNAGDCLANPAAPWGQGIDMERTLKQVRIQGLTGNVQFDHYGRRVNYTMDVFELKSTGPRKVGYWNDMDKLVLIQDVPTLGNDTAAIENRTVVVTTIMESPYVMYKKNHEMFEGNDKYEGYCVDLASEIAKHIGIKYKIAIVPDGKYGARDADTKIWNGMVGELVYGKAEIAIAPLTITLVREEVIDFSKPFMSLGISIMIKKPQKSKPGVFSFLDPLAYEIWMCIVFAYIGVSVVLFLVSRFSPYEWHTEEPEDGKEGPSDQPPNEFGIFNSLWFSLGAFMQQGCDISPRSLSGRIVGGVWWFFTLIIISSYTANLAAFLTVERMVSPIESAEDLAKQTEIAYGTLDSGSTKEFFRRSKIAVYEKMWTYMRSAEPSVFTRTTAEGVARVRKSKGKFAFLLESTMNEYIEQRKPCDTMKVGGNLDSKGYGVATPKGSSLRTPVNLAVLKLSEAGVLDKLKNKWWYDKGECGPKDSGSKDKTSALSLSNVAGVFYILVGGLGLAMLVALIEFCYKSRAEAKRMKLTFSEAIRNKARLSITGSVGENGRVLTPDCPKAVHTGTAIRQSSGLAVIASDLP
Description: as §1, §2

[1] = displacement of [3H]AMPA, Cheng-Prusoff equation, 0.1 M KSCN, on ice

T1 sequence (P42261 19-906 isoform P42261-2 limits assumed): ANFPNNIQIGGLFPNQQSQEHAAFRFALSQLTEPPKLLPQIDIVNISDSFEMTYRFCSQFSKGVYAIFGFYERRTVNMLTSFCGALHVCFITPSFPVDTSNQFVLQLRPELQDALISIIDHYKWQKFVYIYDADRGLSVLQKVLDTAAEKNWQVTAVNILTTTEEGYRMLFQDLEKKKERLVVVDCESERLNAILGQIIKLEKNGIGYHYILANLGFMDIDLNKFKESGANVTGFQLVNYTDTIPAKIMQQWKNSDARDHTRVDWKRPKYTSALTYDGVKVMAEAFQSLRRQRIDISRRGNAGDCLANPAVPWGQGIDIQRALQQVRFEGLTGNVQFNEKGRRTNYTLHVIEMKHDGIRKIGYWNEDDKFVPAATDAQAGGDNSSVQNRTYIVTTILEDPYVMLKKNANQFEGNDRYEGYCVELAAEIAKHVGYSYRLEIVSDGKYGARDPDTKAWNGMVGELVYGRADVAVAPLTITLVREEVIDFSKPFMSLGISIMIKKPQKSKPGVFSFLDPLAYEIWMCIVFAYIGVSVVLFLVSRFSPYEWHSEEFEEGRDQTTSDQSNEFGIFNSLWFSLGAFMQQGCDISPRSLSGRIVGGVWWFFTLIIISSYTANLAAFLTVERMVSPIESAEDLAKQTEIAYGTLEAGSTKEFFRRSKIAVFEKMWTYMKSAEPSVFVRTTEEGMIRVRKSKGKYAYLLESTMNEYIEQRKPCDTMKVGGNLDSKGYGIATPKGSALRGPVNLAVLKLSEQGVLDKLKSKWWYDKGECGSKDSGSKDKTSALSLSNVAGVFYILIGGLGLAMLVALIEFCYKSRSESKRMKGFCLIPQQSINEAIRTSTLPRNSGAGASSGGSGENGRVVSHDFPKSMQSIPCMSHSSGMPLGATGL

SMILES | Hill slope (GluR1 (1-24)) | Hill slope (GluR3 (5-42)) | Hill slope (GluR4 (4-19)) | Ki (GluR1 (1-24); [1]) [nM] | Ki (GluR3 (5-42); [1]) [nM] | Ki (GluR4 (4-19); [1]) [nM]
N#Cc1cc2[nH]c(=O)c(=O)[nH]c2cc1[N+](=O)[O-] [CNQX] | -1.00 ± 0.06 | -0.83 ± 0.06 | -0.86 ± 0.06 | – | – | –
CN1Cc2c(S(=O)(=O)N(C)C)cc3c(c2C1)NC(=O)C3=NO [NS257] | -0.85 ± 0.08 | -1.01 ± 0.22 | -0.83 ± 0.03 | 1970 ± 148 | 967 ± 124 | 1050 ± 78
